The values below come from US7812143B2, “Biomarkers for cancer treatment” (Memorial Sloan-Kettering Cancer Center, priority 2006, dated 2010).

Structures are written as SMILES.

Experiment [1] relates to V600E BRAF tumor cell lines. The experiment can be described thus: Treatment of B-RAF mutant tumor cell lines and xenograft models with MEK inhibitors (cyclin D, RB, cell cycle, proliferation). The format is cell-based. To be noted: tumor cell lines and xenograft models with activating B-RAF mutation (V600E BRAF). The text has this:
Eleven cells lines, including five BRAF mutants, are characterized by their tissue of lineage and mechanism of MAPK activation, were used for the experiments described herein, and are listed in Table 2.

Experiment [2] deals with HER2/EGFR (WT BRAF) tumors. The experiment can be described thus: Response of HER2/EGFR (WT BRAF) tumors to MEK inhibition, in vitro assays and xenograft models. The experiment is classed as cell-based. To be noted: for effectiveness at expected target, phosphorylated MAPK: WT BRAF group compared with V600E BRAF tumors; for sensitivity of tumors with high MAPK activity under the control of activated receptors: in vitro assays and xenograft models. The text has this:
Eleven cells lines, including five BRAF mutants, are characterized by their tissue of lineage and mechanism of MAPK activation, were used for the experiments described herein, and are listed in Table 2. All the cell lines have high levels of MAPK activity.

For another experiment, the system named is SkMel 28 cells. In words: Affymetrix U133A 2.0 gene expression time course after MEK inhibitor. The experiment is classed as cell-based. Particulars: 50 nM. Here is the method: SkMel 28 cells (a melanoma cell line with the V600E BRAF mutation) were treated with the MEK inhibitor, PD0325901 (50 nM), for 2, 8, or 24 hours, or no treatment at all (=time 0 hours). Total cellular RNA was analyzed using an Affymetrix U133A 2.0 platform. Pairwise comparisons of gene expression at each individual time point to reference sample (time 0 hours) were performed, and genes were selected using a threshold of two-fold or greater change in either direction. […] Thus, genes which changed greater than or equal to two-fold in either direction in response to PD0325901 compared to control were identified at three time points following MEK inhibition. All genes were assigned to a functional class based on biological process, according to Gene Ontology (GO) classification (FIG. 2). The number of genes changing in each functional classification was assigned a p-value based on the significance of the number of genes changing given the total number of genes changed at that time point, compared to the total number of genes in the GO functional class, and the total number of genes on the chip. An enrichment score was assigned to each functional class, and was defined as the −log 10(p-value).

The test system of experiment [3] is panel of V600E BRAF cell lines. In words: Microarray (SAM) of gene expression, MEK-inhibited versus DMSO control. The format is cell-based. Particulars: 50 nM, 8 hours, false discovery rate 9%. Here is the method: Mean expression of genes was determined for a panel of V600E BRAF cell lines in each of two conditions, MEK-inhibited (PD0325901 50 nM) or DMSO control, both at 8 hours. The panel of V600E BRAF cell lines included 5 melanoma cell lines (SkMel 1, SkMel 5, SkMel 19, SkMel 28, and MALME 3M) and two colorectal carcinoma cell lines (Colo205 and HT29).
Significance analysis of microarray (SAM) methods were used to determine the significance of difference between the two groups of genes (using a false discovery rate of 9%). […] Expression of the genes was also presented as a heatmap representation (FIG. 3B).

The test system of the next experiment is SkMel 5 cells. The experiment can be described thus: Quantitative RT-PCR of relative mRNA levels after MEK inhibitor. Particulars: 50 nM; 2, 4, 8 and 24 hrs versus time 0; SkMel 5 (V600E BRAF). The experiment is classed as cell-based. Here is the method:
Quantitative RT-PCR was used to determine relative levels of mRNA in cells as a function of time following exposure to the MEK inhibitor (PD0325901 50 nM). SkMel 5 cells were treated with MEK inhibitor (PD0325901 50 nM) for the times indicated (2 hrs, 4 hrs, 8 hrs, and 24 hrs). Following total RNA extraction and an in vitro reverse transcription step, synthesized cDNA was used in a PCR reaction containing pre-designed probe-primer sets purchased from Applied Biosystems and run on an ABI 7500 RT-PCR machine, using software supplied by Applied Biosystems. Relative levels of mRNA compared to the reference sample (time 0) were determined using the ΔΔCT calculation, using HPRT as a housekeeping gene for normalization. In brief, each gene for each sample is assigned a value based on the number of PCR amplification cycles required for the amplified gene product to cross a detection threshold (i.e., a gene detectable at 25 amplification cycles is present in greater starting quantity than a gene product detectable at 30 cycles). The cycle value for each sample for the gene of interest is subtracted from the cycle value for a reference sample (untreated, or time 0), and this value is the delta CT for the gene of interest. […] This is the delta CT for the housekeeping gene. The delta CT (housekeeping gene) is subtracted from the delta CT (gene of interest), and this is the delta delta CT. […]

Experiment [4] deals with SkMel 5, SkMel 19, and Colo205. The experiment can be described thus: Western blot of relative protein expression after MEK inhibitor. The format is cell-based. To be noted: 50 nM, as a function of time; three V600E BRAF cell lines. Here is the method:
Following protein isolation using NP40 1% lysis buffer, Western blot analysis was used to determine relative protein expression in cells as a function of time following exposure to MEK inhibitor (PD0325901 50 nM). […] For the Western Blot analysis, DUSP6 antibody (SantaCruz (#8598)), and SPRY2 antibody (Upstate Cell Signaling Solutions).
(In general: In western blotting, separated proteins are transferred to a membrane and probed.)

The subject of experiment [5] is V600E B-RAF xenograft models of melanoma and colon carcinoma. The experiment can be described thus: Tumor growth in V600E B-RAF xenograft models. Particulars: for tumor growth: compared to vehicle-treated mice, several V600E B-RAF xenograft models of melanoma and colon carcinoma; for cyclin D and Ki-67 in tumor samples: western blot and immunohistochemistry of xenograft tumor samples.

For the compound `O=C(NOC[C@H](O)CO)c1ccc(F)c(F)c1Nc1ccc(I)cc1F` [PD0325901], in experiment [1], the cell cycle result was “G1 arrest”, the “cyclin D levels” value is recorded as “decline in cyclin D levels”, the “phosphorylation of RB” value is given as “hypophosphorylation of RB” and the proliferation result is “inhibition of proliferation”. Further, in experiment [2], the “effectiveness at expected target, phosphorylated MAPK” value was “not measurably different” and the “sensitivity of tumors with high MAPK activity under the control of activated receptors” value is recorded as “resistant”. The “number of genes changing two-fold or greater in either direction” value with SkMel 28 cells (2 hours versus time 0) is on record as 91 genes. Besides, the “number of genes changing two-fold or greater in either direction” value with SkMel 28 cells (8 hours versus time 0) was 327 genes. Also, the “number of genes changing two-fold or greater in either direction” value in the experiment with SkMel 28 cells (24 hours versus time 0) is 1191 genes. In experiment [3], this compound showed a genes downregulated of 31 genes and a genes upregulated of 4 genes. Moreover, the “genes which change significantly in either direction” value in experiment [3] (45 probe sets) came to 35 genes. In addition, in the experiment with SkMel 5 cells, the “relative mRNA levels of DUSP6, SPRY2, ETV1, ETV5, and CCND1” value is recorded as “Decrease in mRNA levels”. Besides, the “relative protein expression of DUSP6 and SPRY2” value in experiment [4] was “decrease in protein expression”. Moreover, in experiment [5], the tumor growth result is recorded as “Tumor growth delay was achieved”; the “cyclin D and Ki-67 in tumor samples” value was “decline in both cyclin D and Ki-67”.
For `O=C(NOCC1CC1)c1ccc(F)c(F)c1Nc1ccc(I)cc1Cl` [CI-1040], in experiment [1], the cell cycle entry is “G1 arrest”, the “cyclin D levels” value is “decline in cyclin D levels”, the “phosphorylation of RB” value was “hypophosphorylation of RB” and the proliferation entry is given as “inhibition of proliferation”. In experiment [2], the “effectiveness at expected target, phosphorylated MAPK” value was “not measurably different” and the “sensitivity of tumors with high MAPK activity under the control of activated receptors” value is “resistant”. In addition, in experiment [5], the tumor growth result is listed as “Tumor growth delay was achieved”; the “cyclin D and Ki-67 in tumor samples” value is “decline in both cyclin D and Ki-67”.
